Assay results reported in ChEMBL document CHEMBL5325486, “Synthesis of novobiocin derivatives and evaluation of their antigonococcal activity and pharmacokinetics” (Bioorg Med Chem, 2023).
Values after ≈ are worked out from the molar mass of the structure shown.

Assays:
[1] = Effective permeability of compound by PAMPA assay; type: ADME; conditions: read-out: Peff
[2] = Metabolic stability in mouse liver microsomes assessed as residual rate; type: ADME, Microsome
Staphylococcus aureus = assay: Antibacterial activity against Staphylococcus aureus assessed inhibition of bacterial growth; type: functional
[3] = Aqueous solubility of compound in neutral JP2 solution; type: physicochemical
Neisseria gonorrhoeae [4] = assay: Antibacterial activity against resistant Neisseria gonorrhoeae assessed inhibition of bacterial growth; type: functional
[5] = Aqueous solubility of compound in acidic JP1 solution; type: physicochemical
Neisseria gonorrhoeae [6] = assay: Antibacterial activity against Neisseria gonorrhoeae clinical isolate assessed inhibition of bacterial growth; type: functional
[7] = JP2 solution, read-out: solubility
[8] = JP1 solution, read-out: solubility

| SMILES | Papp [1] | Stability [2] | MIC50 (Staphylococcus aureus) | MIC90 (Staphylococcus aureus) | solubility [3, 7] | MIC50 (Neisseria gonorrhoeae [4]) | MIC90 (Neisseria gonorrhoeae [4]) | solubility [5, 8] | MIC90 (Neisseria gonorrhoeae [6]) | solubility ([3]; buffer) | solubility ([5]; buffer) |
| --- | --- | --- | --- | --- | --- | --- | --- | --- | --- | --- | --- |
| CO[C@@H]1[C@@H](OC(=O)c2ccc(C)[nH]2)[C@@H](O)[C@H](Oc2ccc3c(O)c(NC(=O)c4ccnc(C)c4)c(=O)oc3c2C)OC1(C)C | 0.349 ×10⁻⁶ cm/s | 120% | 0.5 µg/mL (≈ 0.823 µM) | 1 µg/mL (≈ 1.65 µM) | 71.8 µM (≈ 43.6 µg/mL) | 0.25 µg/mL (≈ 0.411 µM) | 0.5 µg/mL (≈ 0.823 µM) | 55 µM (≈ 33.4 µg/mL) | – | – | – |
| CO[C@@H]1[C@@H](OC(=O)c2ccc(C)[nH]2)[C@@H](O)[C@H](Oc2ccc3c(O)c(NC(=O)c4cn(C)cn4)c(=O)oc3c2C)OC1(C)C | 1.61 ×10⁻⁶ cm/s | 119% | 0.5 µg/mL (≈ 0.838 µM) | 0.5 µg/mL (≈ 0.838 µM) | > 80 µM | 0.25 µg/mL (≈ 0.419 µM) | 0.5 µg/mL (≈ 0.838 µM) | > 80 µM | 0.25 µg/mL (≈ 0.419 µM) | – | – |
| C=Cc1cc(C(=O)Nc2c(O)c3ccc(O[C@@H]4OC(C)(C)[C@H](OC)[C@@H](OC(=O)c5ccc(C)[nH]5)[C@H]4O)c(C)c3oc2=O)ccc1N | 8.06 ×10⁻⁶ cm/s | 104% | 0.25 µg/mL (≈ 0.395 µM) | 0.5 µg/mL (≈ 0.789 µM) | 65.8 µM (≈ 41.7 µg/mL) | 0.25 µg/mL (≈ 0.395 µM) | 0.5 µg/mL (≈ 0.789 µM) | 1.79 µM (≈ 1.13 µg/mL) | 0.25 µg/mL (≈ 0.395 µM) | – | – |
| CO[C@@H]1[C@@H](OC(=O)c2ccc(C)[nH]2)[C@@H](O)[C@H](Oc2ccc3c(O)c(NC(=O)CN(C)C)c(=O)oc3c2C)OC1(C)C | – | – | 1 µg/mL (≈ 1.74 µM) | 2 µg/mL (≈ 3.49 µM) | > 100 µM | 2 µg/mL (≈ 3.49 µM) | 4 µg/mL (≈ 6.97 µM) | > 100 µM | – | – | – |
| CO[C@@H]1[C@@H](OC(=O)c2ccc(C)[nH]2)[C@@H](O)[C@H](Oc2ccc3c(O)c(NC(=O)c4ccnc(N(C)C)c4)c(=O)oc3c2C)OC1(C)C | – | – | 0.5 µg/mL (≈ 0.785 µM) | 0.5 µg/mL (≈ 0.785 µM) | – | 0.5 µg/mL (≈ 0.785 µM) | 0.5 µg/mL (≈ 0.785 µM) | – | – | – | – |
| CO[C@@H]1[C@H](NC(=O)c2ccc(C)[nH]2)[C@@H](O)[C@H](Oc2ccc3c(O)c(NC(=O)c4ccc(O)c(CC=C(C)C)c4)c(=O)oc3c2C)OC1(C)C | – | – | > 128 µg/mL | > 128 µg/mL | – | 64 µg/mL (≈ 94.7 µM) | > 64 µg/mL | – | – | – | – |
| CO[C@@H]1[C@@H](OC(=O)c2ccc(C)[nH]2)[C@@H](O)[C@H](Oc2ccc3c(O)c(NC(=O)c4cscn4)c(=O)oc3c2C)OC1(C)C | – | – | 0.5 µg/mL (≈ 0.834 µM) | 0.5 µg/mL (≈ 0.834 µM) | – | 0.5 µg/mL (≈ 0.834 µM) | 0.5 µg/mL (≈ 0.834 µM) | – | – | – | – |
| CO[C@@H]1[C@@H](OC(=O)c2ccc(C)[nH]2)[C@@H](O)[C@H](Oc2ccc3c(O)c(NC(=O)c4cn(Cc5ccccn5)cn4)c(=O)oc3c2C)OC1(C)C | – | – | 0.25 µg/mL (≈ 0.371 µM) | 0.5 µg/mL (≈ 0.742 µM) | – | 0.5 µg/mL (≈ 0.742 µM) | 0.5 µg/mL (≈ 0.742 µM) | – | – | – | – |
| C[C@@H]1CN2c3c(cc4c(N5C(=O)OC[C@@H]5C)noc4c3F)CC3(C(=O)NC(=O)NC3=O)[C@H]2[C@H](C)O1 [ZOLIFLODACIN] | 0.039 ×10⁻⁶ cm/s | 94.3% | – | – | 66 µM (≈ 32.2 µg/mL) | – | – | 66.3 µM (≈ 32.3 µg/mL) | 0.063 µg/mL (≈ 0.129 µM) | – | – |
| CO[C@@H]1[C@@H](OC(=O)c2ccc(C)[nH]2)[C@@H](O)[C@H](Oc2ccc3c(O)c(NC(=O)c4cn(C)c(CCC(C)C)n4)c(=O)oc3c2C)OC1(C)C | – | – | 0.25 µg/mL (≈ 0.375 µM) | 0.25 µg/mL (≈ 0.375 µM) | – | 0.5 µg/mL (≈ 0.75 µM) | 1 µg/mL (≈ 1.5 µM) | – | – | – | – |
| CO[C@@H]1[C@@H](OC(=O)c2ccc(C)[nH]2)[C@@H](O)[C@H](Oc2ccc3c(O)c(NC(=O)c4csc(C)n4)c(=O)oc3c2C)OC1(C)C | – | – | 0.25 µg/mL (≈ 0.407 µM) | 0.25 µg/mL (≈ 0.407 µM) | – | 0.25 µg/mL (≈ 0.407 µM) | 0.5 µg/mL (≈ 0.815 µM) | – | – | – | – |
| CO/N=C(\C(=O)N[C@@H]1C(=O)N2C(C(=O)O)=C(CSc3nc(=O)c(O)nn3C)CS[C@H]12)c1csc(N)n1 [CEFTRIAXONE] | – | – | 1 µg/mL (≈ 1.8 µM) | > 128 µg/mL | – | 0.008 µg/mL (≈ 0.0144 µM) | 0.25 µg/mL (≈ 0.451 µM) | – | – | – | – |
| CO[C@@H]1[C@@H](NC(=O)c2ccc(C)[nH]2)[C@@H](O)[C@H](Oc2ccc3c(O)c(NC(=O)c4ccc(O)c(CC=C(C)C)c4)c(=O)oc3c2C)OC1(C)C | – | – | 2 µg/mL (≈ 2.96 µM) | 2 µg/mL (≈ 2.96 µM) | – | 32 µg/mL (≈ 47.4 µM) | 64 µg/mL (≈ 94.7 µM) | – | – | – | – |
| CO[C@@H]1[C@@H](OC(=O)c2ccc(C)[nH]2)[C@@H](O)[C@H](Oc2ccc3c(O)c(NC(=O)c4c(C)ncn4CC=C(C)C)c(=O)oc3c2C)OC1(C)C | – | – | 0.5 µg/mL (≈ 0.752 µM) | 0.5 µg/mL (≈ 0.752 µM) | – | 0.5 µg/mL (≈ 0.752 µM) | 0.5 µg/mL (≈ 0.752 µM) | – | – | – | – |
| CO[C@@H]1[C@@H](OC(=O)c2ccc(C)[nH]2)[C@@H](O)[C@H](Oc2ccc3c(O)c(NC(=O)c4sc5nccn5c4C)c(=O)oc3c2C)OC1(C)C | – | – | 0.5 µg/mL (≈ 0.766 µM) | 1 µg/mL (≈ 1.53 µM) | – | 0.5 µg/mL (≈ 0.766 µM) | 0.5 µg/mL (≈ 0.766 µM) | – | – | – | – |
| CO[C@@H]1[C@@H](OC(=O)c2ccc(C)[nH]2)[C@@H](O)[C@H](Oc2ccc3c(O)c(NC(=O)c4ccncc4)c(=O)oc3c2C)OC1(C)C | – | – | 4 µg/mL (≈ 6.74 µM) | 8 µg/mL (≈ 13.5 µM) | – | 1 µg/mL (≈ 1.68 µM) | 1 µg/mL (≈ 1.68 µM) | – | – | – | – |
| O=c1ccc2ncc(=O)n3c2n1C[C@H]3CN1CCC(NCc2cc3c(cn2)OCCC3)CC1 [GEPOTIDACIN] | 4.19 ×10⁻⁶ cm/s | 107% | – | – | – | – | – | – | 0.5 µg/mL (≈ 1.11 µM) | 67 µM (≈ 30.1 µg/mL) | 63.4 µM (≈ 28.4 µg/mL) |
| CC[C@H]1OC(=O)[C@@](C)(F)C(=O)[C@H](C)[C@@H](O[C@@H]2O[C@H](C)C[C@H](N(C)C)[C@H]2O)[C@](C)(OC)C[C@@H](C)C(=O)[C@H](C)[C@H]2N(CCCCn3cc(-c4cccc(N)c4)nn3)C(=O)O[C@]12C [SOLITHROMYCIN] | 0.653 ×10⁻⁶ cm/s | 104% | – | – | 49.4 µM (≈ 41.7 µg/mL) | – | – | > 80 µM | 0.25 µg/mL (≈ 0.296 µM) | – | – |
| CO[C@@H]1[C@@H](OC(=O)NOCC(C)C)[C@@H](O)[C@H](Oc2ccc3c(O)c(NC(=O)c4ccc(O)c(CC=C(C)C)c4)c(=O)oc3c2C)OC1(C)C | – | – | 0.5 µg/mL (≈ 0.73 µM) | 1 µg/mL (≈ 1.46 µM) | – | 4 µg/mL (≈ 5.84 µM) | 16 µg/mL (≈ 23.4 µM) | – | – | – | – |
| CO[C@@H]1[C@@H](OC(=O)c2cc(Cl)c(C)[nH]2)[C@@H](O)[C@H](Oc2ccc3c(O)c(NC(=O)c4ccc(O)c(CC=C(C)C)c4)c(=O)oc3c2C)OC1(C)C | – | – | 0.063 µg/mL (≈ 0.0886 µM) | 0.125 µg/mL (≈ 0.176 µM) | – | 0.5 µg/mL (≈ 0.703 µM) | 1 µg/mL (≈ 1.41 µM) | – | – | – | – |
| C=Cc1cc(C(=O)Nc2c(O)c3ccc(O[C@@H]4OC(C)(C)[C@H](OC)[C@@H](OC(=O)c5ccc(C)[nH]5)[C@H]4O)c(C)c3oc2=O)ccn1 | – | – | 0.5 µg/mL (≈ 0.807 µM) | 1 µg/mL (≈ 1.61 µM) | – | 0.5 µg/mL (≈ 0.807 µM) | 0.5 µg/mL (≈ 0.807 µM) | – | – | – | – |
| CO[C@@H]1[C@@H](OC(=O)NOC(C)(C)C)[C@@H](O)[C@H](Oc2ccc3c(O)c(NC(=O)c4ccc(O)c(CC=C(C)C)c4)c(=O)oc3c2C)OC1(C)C | – | – | 1 µg/mL (≈ 1.46 µM) | 1 µg/mL (≈ 1.46 µM) | – | 16 µg/mL (≈ 23.4 µM) | 64 µg/mL (≈ 93.5 µM) | – | – | – | – |
| CCCn1cnc(C(=O)Nc2c(O)c3ccc(O[C@@H]4OC(C)(C)[C@H](OC)[C@@H](OC(=O)c5ccc(C)[nH]5)[C@H]4O)c(C)c3oc2=O)c1 | – | – | 0.5 µg/mL (≈ 0.8 µM) | 0.5 µg/mL (≈ 0.8 µM) | – | 1 µg/mL (≈ 1.6 µM) | 1 µg/mL (≈ 1.6 µM) | – | – | – | – |
| CO[C@@H]1[C@@H](OC(=O)c2ccc(C)[nH]2)[C@@H](O)[C@H](Oc2ccc3c(O)c(NC(=O)Cn4c(-c5ccccn5)nc5ccccc54)c(=O)oc3c2C)OC1(C)C | – | – | 0.25 µg/mL (≈ 0.345 µM) | 0.5 µg/mL (≈ 0.691 µM) | – | 0.5 µg/mL (≈ 0.691 µM) | 0.5 µg/mL (≈ 0.691 µM) | – | – | – | – |
| CO[C@@H]1[C@@H](OC(=O)c2ccc(C)[nH]2)[C@@H](O)[C@H](Oc2ccc3c(O)c(NC(=O)c4ccnc(N)c4)c(=O)oc3c2C)OC1(C)C | – | – | 2 µg/mL (≈ 3.29 µM) | 2 µg/mL (≈ 3.29 µM) | – | 0.5 µg/mL (≈ 0.822 µM) | 1 µg/mL (≈ 1.64 µM) | – | – | – | – |
| CO[C@@H]1[C@@H](OC(=O)c2ccc(C)[nH]2)[C@@H](O)[C@H](Oc2ccc3c(O)c(NC(=O)c4ccnc(Oc5cccnc5)c4)c(=O)oc3c2C)OC1(C)C | – | – | 0.5 µg/mL (≈ 0.728 µM) | 1 µg/mL (≈ 1.46 µM) | – | 0.5 µg/mL (≈ 0.728 µM) | 1 µg/mL (≈ 1.46 µM) | – | – | – | – |
| CO[C@@H]1[C@@H](OC(=O)c2ccc(C)[nH]2)[C@@H](O)[C@H](Oc2ccc3c(O)c(NC(=O)CCN(C)C)c(=O)oc3c2C)OC1(C)C | – | – | 2 µg/mL (≈ 3.4 µM) | 4 µg/mL (≈ 6.81 µM) | > 100 µM | 16 µg/mL (≈ 27.2 µM) | 32 µg/mL (≈ 54.5 µM) | > 100 µM | – | – | – |
| CO[C@@H]1[C@@H](OC(=O)c2ccc(C)[nH]2)[C@@H](O)[C@H](Oc2ccc3c(O)c(NC(=O)c4ccccc4)c(=O)oc3c2C)OC1(C)C | – | – | 0.063 µg/mL (≈ 0.106 µM) | 0.125 µg/mL (≈ 0.211 µM) | – | 1 µg/mL (≈ 1.69 µM) | 1 µg/mL (≈ 1.69 µM) | – | – | – | – |
